Patent US20110071124A1, “Compounds that Inhibit Production of sAPPB and AB and Uses Thereof” (The Trustees of Columbia University in the City of New York, priority 2008, published 2011)

Tests used:
[1] = system: sAPPβ in Lenti-APPsw infected primary cortical neurons; experiment: sAPPβ IP-Western in Lenti-APPsw infected primary cortical neurons; format: cell-based, mouse; conditions: 20 μM, 24 hours, normalized to APP
Protocol: FIG. 15A-D. LDN-0057228 reduces Aβ40 and sAPPβ in primary neurons. DIV-14 primary cortical neurons from wild-type mice were incubated for 24 hours with primary culture media containing lentivirus harboring APPsw. After infection, neurons were incubated for 48 hours with 1:1 fresh to conditioned media to allow for APP expression. Neurons were then treated with LDN-0057228 at 20 μM for 24 hours in triplicate. A) Media was collected for Aβ40 ELISA. Raw Aβ40 values were normalized to APP to control for variations in lentiviral infection efficiency. B) Cell lysates were probed with 6E10 antibody to visualize the transduced full-length APP. C) sAPPβ from neuron culture media was immunoprecipitated with sβsw antibody and probed with LN27. D) Quantification of sAPPβ, normalized to APP. Data in A) and […]) represent mean+s.d. of 3 wells. Bands from B) and C) were quantified using ImageJ software.
Using this experimental paradigm, LDN-0057228 was tested at 20 μM concentration to confirm the sAPPβ- and Aβ-lowering activity of the compound (FIG. 15). The protocol was modified slightly to allow for 24-hour compound treatment. […]
LDN-0057228 caused a 75% reduction in Aβ40 levels (p<0.05) in primary neurons (FIG. 15A). […] The sAPPβ bands were quantified using ImageJ software and normalized to APP, showing a 40% reduction in sAPPβ (p<0.01) for the treated neurons (FIG. 15D).

brain total Aβ40 = brain total Aβ40 in Tg2576 mice after intraperitoneal injection; format: in vivo; conditions: 3 mg/kg intraperitoneal, 1 injection per day for 9 days, 12- to 13-month old Tg2576 mice; p value greater than 0.05
Protocol: FIG. 18. CNS-2 reduces brain total Aβ40 in Tg2576 mice. CNS-2 was dissolved in 0.9% normal saline solution with 1.9% DMSO. 12 month old Tg2576 APPsw transgenic mice were treated with 3 mg/kg CNS-2 via intraperitoneal injection at an injection volume of 20 μl per gram. 8 mice per group were treated for 9 days, 1 injection per day. Mice were sacrificed on day 9, 5 hours after the final injection. One hemisphere from each mouse was homogenized, and the homogenate was processed for formic acid extraction of plaque Aβ. After formic acid extraction, total Aβ40 was measured via ELISA kit (BioSource) and normalized to total protein.
A total of 16 mice were treated with either DMSO (n=8) or 3 mg/kg CNS-2 (n=8). The dosage was selected arbitrarily based on compound solubility in 0.9% normal saline. CNS-2 was dissolved in 0.9% normal saline solution with 1.9% final DMSO concentration. 12- to 13-month old Tg2576 mice were treated with DMSO or CNS-2 via intraperitoneal injection for 9 days (1 injection per day) at an injection volume of 20 μl per gram of weight. Mouse weight was monitored daily, and the total injection volume adjusted accordingly over the course of the 9-day treatment. […] Mice were sacrificed on day 9, 5 hours after the final injection. […] Total Aβ40 was determined by Aβ ELISA kit and normalized to total protein (FIG. 18).

[2] = weight and overt toxicity in treated Tg2576 mice; format: in vivo; conditions: 3 mg/kg intraperitoneal, 9 days
Protocol: A total of 16 mice were treated with either DMSO (n=8) or 3 mg/kg CNS-2 (n=8). The dosage was selected arbitrarily based on compound solubility in 0.9% normal saline. CNS-2 was dissolved in 0.9% normal saline solution with 1.9% final DMSO concentration. 12- to 13-month old Tg2576 mice were treated with DMSO or CNS-2 via intraperitoneal injection for 9 days (1 injection per day) at an injection volume of 20 μl per gram of weight. Mouse weight was monitored daily, and the total injection volume adjusted accordingly over the course of the 9-day treatment. […] Mice were sacrificed on day 9, 5 hours after the final injection. One hemibrain from each mouse was homogenized and processed for formic acid extraction of plaque Aβ. Total Aβ40 was determined by Aβ ELISA kit and normalized to total protein (FIG. 18).

SMILES: Fc1ccc(C(OCCN2CCC[C@H]2CNCCc2ccccc2)c2ccc(F)cc2)cc1 [LDN-0057228]
- reduction in sAPPβ [1]: 40%

SMILES: O=C(CCc1ccccc1)NC[C@@H]1CCCN1CCOC(c1ccc(F)cc1)c1ccc(F)cc1 [CNS-2]
- reduction of brain total Aβ40 (brain total Aβ40): 30%
- changes in weight and overt signs of toxicity [2]: Neither the treated nor control groups exhibited any significant changes in weight or any overt signs of toxicity
